This note sets out measurements from patent US4386103A, “Dichloroamino acid derivatives useful as potent germicidal and fungicidal agents” (Merck & Co., Inc., priority 1981, dated 1983).

One assay deals with Rhizopus oryzae. Put plainly: Contact fungicidal screen, Rhizopus oryzae. Format: cell-based. To be noted: 0.1M NaOAc pH 4.6. The method, then:
The organisms used in the Contact Fungicidal Screen are a dermatophyte, trychophyton mentagrophytes, frequently associated with athlete's foot; a yeast, Candida albican, causative agent of thrush and vaginitis; a phycomycete, Rhizopus oryzae, commonly known as black bread mold; an ascomycete, Aspergillus fumagatis, found in chicken droppings and causing lung infections; and another dermatophyte, Microsporum canis, which causes ringworm. These organisms are maintained as stock cultures at 4° C. on agar slants of the following composition: dextrose 2%, Neopeptone (Difco) 1%, agar 2%. Fluid medium of the same nutrient composition (without agar) was used to test the viability of the organisms after exposure to the fungicide. This medium is also known as Sabouraud's medium.
[…]. The mycelial mat is removed from the surface of the agar using a sterile spatula. It is transferred to a heat sterilized glass tissue grinder and macerated with 25 ml of sterile physiological saline. The suspension is then filtered through sterile glass wool. The density of the sporangia spore suspension is determined by counting in a hemacytometer. The suspension is stored at 4° C. until it was used, at which time it was diluted with sterile physiological saline to a density of 5×10^6 spores per ml.
The compounds are weighed into heat sterilized 100 ml volumetric flasks and immediately before screening dissolved in 0.1 M NaOAc pH 4.6 buffer (test solutions).
The Aspergillus, Candida, Microsporum and Rhizopus species are screened in a slightly different manner. Basically, the procedure for the Contact Germicidal Efficiency Screen is utilized. After the test solutions are made up, 5 ml aliquots are pipetted into heat sterilized 25 ml glass stoppered erlenmeyer flasks. The screen is initiated when 0.5 ml of the 5×10^6 cell (spore) per ml suspension is added to the flask containing 5 ml of the test solution. At intervals of 0.5, 2.5, 5.0, 10.0 and 15.0 minutes, a 4 mm loopful of the inoculated test solution is subcultured into 7 mL of sterile fluid Sabouraud's medium and mixed on a vortex, the high dilution serving to stop the action of the compound. The subculture tubes are incubated at 25°-30° C. for ten days with daily observation for mycelial growth. The earliest subculture time at which no growth is present is considered the endpoint and is recorded as the sterilization time.
To insure the viability of the culture, a 0.5 ml aliquot of the 5×10^6 cells (spores) per ml suspension is transferred to 5 ml of the pH 4.6 buffer. A loopful of the inoculated buffer is then subcultured to 7 ml of fluid Sabouraud's medium and incubated at 25°-30° C. for ten days. To insure that the dilution of the test solution into the subculture medium does stop the action, a loopful of the test solution and a loopful of the inoculated buffer are transferred into the same subculture tube. This tube is also incubated at 25°-30° C. for ten days.

Another assay relates to Microsporum canis. Description: Contact fungicidal screen, Microsporum canis. To be noted: 0.1M NaOAc pH 4.6. Type of assay: cell-based. The method, then:
The organisms used in the Contact Fungicidal Screen are a dermatophyte, trychophyton mentagrophytes, frequently associated with athlete's foot; a yeast, Candida albican, causative agent of thrush and vaginitis; a phycomycete, Rhizopus oryzae, commonly known as black bread mold; an ascomycete, Aspergillus fumagatis, found in chicken droppings and causing lung infections; and another dermatophyte, Microsporum canis, which causes ringworm. These organisms are maintained as stock cultures at 4° C. on agar […] of the following composition: dextrose 2%, Neopeptone (Difco) 1%, agar 2%. Fluid medium of the same nutrient composition (without agar) was used to test the viability of the organisms after exposure to the fungicide. This medium is also known as Sabouraud's medium. Sabouraud's agar plate cultures of Aspergillus fumigatus, Microsporum canis, and a different culture of Trychophyton mentagrophytes are prepared by planting an inoculum at the center of an agar plate and incubating at 25°-30° C. for seven to ten days. The mycelial mats are removed from the surface of the agar and prepared in the same manner as the Rhizopus culture. The compounds are weighed into heat sterilized 100 ml volumetric flasks and immediately before screening dissolved in 0.1 M NaOAc pH 4.6 buffer (test solutions). The Aspergillus, Candida, Microsporum and Rhizopus species are screened in a slightly different manner. Basically, the procedure for the Contact Germicidal Efficiency Screen is utilized. After the test solutions are made up, 5 ml aliquots are pipetted into heat sterilized 25 ml glass stoppered erlenmeyer flasks. The screen is initiated when 0.5 ml of the 5×10^6 cell (spore) per ml suspension is added to the flask containing 5 ml of the test solution. […] The subculture tubes are incubated at 25°-30° C. for ten days with daily observation for mycelial growth. The earliest subculture time at which no growth is present is considered the endpoint and is recorded as the sterilization time. To insure the viability of the culture, a 0.5 ml aliquot of the 5×10^6 cells (spores) per ml suspension is transferred to 5 ml of the pH 4.6 buffer. A loopful of the inoculated buffer is then subcultured to 7 ml of fluid Sabouraud's medium and incubated at 25°-30° C. for ten days. To insure that the dilution of the test solution into the subculture medium does stop the action, a loopful of the test solution and a loopful of the inoculated buffer are transferred into the same subculture tube. This tube is also incubated at 25°-30° C. for ten days.

For the molecule `CC(C)(CC(=O)O)N(Cl)Cl` [(II)], the “Sterilization Time” value in the assay with Rhizopus oryzae (10 PPM) turned out to be 15 min; with Rhizopus oryzae (100 PPM) it was 15 min; in the assay on Rhizopus oryzae (1000 PPM), 10.0 min; in the assay on Microsporum canis (10 PPM), 15 min; in the assay on Microsporum canis (100 PPM), 10.0 min; in the assay on Microsporum canis (1000 PPM), 2.5 min.
Consider `CC(C)(CCC(=O)O)N(Cl)Cl` [(III), 4-Dichloroamino-4-methylvaleric acid], for which the “Sterilization Time” value in the assay on Rhizopus oryzae (10 PPM) is 15 min; in the assay with Rhizopus oryzae (100 PPM) it was 15 min; in the assay with Rhizopus oryzae (1000 PPM) it was 10.0 min; in the assay on Microsporum canis (10 PPM) it was 15 min; in the assay on Microsporum canis (100 PPM), 5.0 min; in the assay on Microsporum canis (1000 PPM) it was 0.5 min.
`CC(C)(COC(=O)CCC(=O)O)N(Cl)Cl` [(IV), 2-Dichloroamino-2-methylpropylhemisuccinate]: the “Sterilization Time” value with Rhizopus oryzae (10 PPM) was 15 min; with Rhizopus oryzae (100 PPM), 15 min; in the assay with Rhizopus oryzae (1000 PPM), 15 min; in the assay on Microsporum canis (10 PPM), 15 min; in the assay with Microsporum canis (100 PPM), 15.0 min; in the assay on Microsporum canis (1000 PPM), 2.5 min.
For `CC(C)(COC(=O)CCCC(=O)O)N(Cl)Cl` [(V), 2-dichloramino-2-methylpropyl-hemiglutarate], the “Sterilization Time” value is 15 min in the assay on Rhizopus oryzae (10 PPM); 15 min with Rhizopus oryzae (100 PPM); 15 min in the assay on Rhizopus oryzae (1000 PPM); 15 min in the assay with Microsporum canis (10 PPM); 5.0 min in the assay on Microsporum canis (100 PPM); 2.5 min in the assay with Microsporum canis (1000 PPM).
